This is an account of results in patent publication US7381537B2, “Use of inhibitors of glutaminyl cyclases for treatment and prevention of disease” (Probiodrug AG, priority 2003, dated 2008).

The target of assay [1] is T1, QC (Homo sapiens, UniProt Q16769). The experiment in a line: Long-term Glu^1-cyclization of Aβ-derived peptides by recombinant human QC, MALDI-TOF. Particulars: for turnover of glutamate-containing peptide by QC: pH 5.2 and 6.5, respectively; for suppression of [pGlu^3]Aβ3-11a / [pGlu^3]Aβ3-21a formation from Aβ3-11a / Aβ3-21a: 5 mM benzimidazole, pH 5.2 and 6.5. Details: The cDNA of the mature QC starting with codon 38 was fused in frame with the plasmid encoded 6×histidine tag; 6xHis; made in house; host or cells: Pichia pastoris X33 (pPICZαB); also E. coli M15 (pQE-31). Format: biochemical. The procedure: For long-term testing of Glu^1-cyclization, Aβ-derived peptides were incubated in 100 μl 0.1 M sodium acetate buffer, pH 5.2 or 0.1 M Bis-Tris buffer, pH 6.5 at 30° C. Peptides were applied in 0.5 mM [Aβ3-11a] or 0.15 mM [Aβ3-21a] concentrations, and 0.2 U QC was added all 24 hours.
T1 sequence (Q16769 29-361): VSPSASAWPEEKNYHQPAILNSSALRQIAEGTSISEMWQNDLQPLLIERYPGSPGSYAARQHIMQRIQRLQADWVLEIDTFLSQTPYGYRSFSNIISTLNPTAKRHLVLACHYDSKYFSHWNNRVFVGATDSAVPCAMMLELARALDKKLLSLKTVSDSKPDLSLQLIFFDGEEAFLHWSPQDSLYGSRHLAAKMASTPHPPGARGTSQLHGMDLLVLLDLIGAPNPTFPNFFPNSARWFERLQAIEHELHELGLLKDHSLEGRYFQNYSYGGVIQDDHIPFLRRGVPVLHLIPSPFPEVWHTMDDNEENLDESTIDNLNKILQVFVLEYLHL
In case of Aβ3-21a, the assays contained 1% DMSO. At different times, samples were removed from the assay tube, peptides extracted using ZipTips (Millipore) according to the manufacturer's recommendations, mixed with matrix solution (1:1 v/v) and subsequently the mass spectra recorded. Negative controls did either contain no QC or heat deactivated enzyme.
The QC-catalyzed formation of [pGlu^3]Aβ3-11a and [pGlu^3]Aβ3-21a was investigated at pH 5.2 and 6.5, respectively. If the QC-inhibitor benzimidazole was added to the solution before starting the assay by addition of QC, substrate conversion resulting in [pGlu^3]Aβ3-11a or [pGlu^3]Aβ3-21a was suppressed (FIGS. 15E and F). If QC was boiled before addition, formation of the pGlu-peptides was negligible (FIGS. 15A and B).

Assay [2] deals with T1, QC. As to the kind of experiment: Inhibition and inactivation of human QC by chelators. The assay is classed as biochemical. Details: The cDNA of the mature QC starting with codon 38 was fused in frame with the plasmid encoded 6×histidine tag; 6xHis; made in house; host or cells: Pichia pastoris X33 (pPICZαB); also E. coli M15 (pQE-31). Particulars: for inhibition of human QC catalyzed substrate cyclization: competitive and time-dependent for the chelators.

Assay [3] addresses T1, QC. The experiment in a line: Fluorometric assay with pyroglutamyl aminopeptidase as auxiliary enzyme, human QC. Format: biochemical. The arrangement: The cDNA of the mature QC starting with codon 38 was fused in frame with the plasmid encoded 6×histidine tag; 6xHis; made in house; host or cells: Pichia pastoris X33 (pPICZαB); also E. coli M15 (pQE-31). To be noted: H-Gln-AMC as substrate. An excerpt:
Excitation/emission wavelengths were 320/410 nm.
Excitation/emission wavelengths were 380/460 nm.
H-Glu(OMe)-βNA and H-Glu-βNA.

The target of assay [4] is T1, QC. As to the kind of experiment: Continuous spectrophotometric assay of QC substrate conversion (glutamate dehydrogenase coupled), human QC.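 Note: initial rates read in microplates at 30 °C, with enzyme activity quantified against an ammonia calibration curve recorded under the same assay conditions.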
Procedure: The initial velocities were evaluated and the enzymatic activity was determined from a standard curve of ammonia under assay conditions. All samples were measured at 30° C., using either the [sequence]luor Plus or the Sunrise (both from TECAN) reader for microplates. Kinetic data was evaluated using GraFit software.
Assay [5] relates to mammalian QC. To be noted: Busby et al. 1987; cited from earlier work.
Assay [6] concerns the target T2, purified DP IV (porcine kidney) (Sus scrofa, UniProt P22411).
T2 construct: purified DP IV (porcine kidney); from tissue; host or cells: porcine kidney
As to the kind of experiment: Cleavage of [Gln^3]Aβ1-11a by DP IV, MALDI-TOF. Format: biochemical. The procedure:
Matrix-assisted laser desorption/ionization mass spectrometry was carried out using the Hewlett-Packard G2025 LD-TOF System with a linear time of flight analyzer. […] Samples (5 μl) were mixed with equal volumes of the matrix solution. For matrix solution we used DHAP/DAHC, prepared by solving 30 mg 2′,6′-dihydroxyacetophenone (Aldrich) and 44 mg diammonium hydrogen citrate (Fluka) in 1 ml acetonitrile/0.1% TFA in water (1/1, v/v). A small volume (=1 μl) of the matrix-analyte-mixture was transferred to a probe tip and immediately evaporated in a vacuum chamber (Hewlett-Packard G2024A sample prep accessory) to ensure rapid and homogeneous sample crystallization.

[7] abbreviates: peptides comprising modified amino acids.
Where [8] appears, read: Table 6, influence of substrate length.
Where [9] appears, read: Table 1, physiological substrates.

Bridge positions count the residues as written; N and C are the ends. Ends that are not written are not given here. Peptide text beside a SMILES is read from it.

T2 sequence (P22411 whole entry): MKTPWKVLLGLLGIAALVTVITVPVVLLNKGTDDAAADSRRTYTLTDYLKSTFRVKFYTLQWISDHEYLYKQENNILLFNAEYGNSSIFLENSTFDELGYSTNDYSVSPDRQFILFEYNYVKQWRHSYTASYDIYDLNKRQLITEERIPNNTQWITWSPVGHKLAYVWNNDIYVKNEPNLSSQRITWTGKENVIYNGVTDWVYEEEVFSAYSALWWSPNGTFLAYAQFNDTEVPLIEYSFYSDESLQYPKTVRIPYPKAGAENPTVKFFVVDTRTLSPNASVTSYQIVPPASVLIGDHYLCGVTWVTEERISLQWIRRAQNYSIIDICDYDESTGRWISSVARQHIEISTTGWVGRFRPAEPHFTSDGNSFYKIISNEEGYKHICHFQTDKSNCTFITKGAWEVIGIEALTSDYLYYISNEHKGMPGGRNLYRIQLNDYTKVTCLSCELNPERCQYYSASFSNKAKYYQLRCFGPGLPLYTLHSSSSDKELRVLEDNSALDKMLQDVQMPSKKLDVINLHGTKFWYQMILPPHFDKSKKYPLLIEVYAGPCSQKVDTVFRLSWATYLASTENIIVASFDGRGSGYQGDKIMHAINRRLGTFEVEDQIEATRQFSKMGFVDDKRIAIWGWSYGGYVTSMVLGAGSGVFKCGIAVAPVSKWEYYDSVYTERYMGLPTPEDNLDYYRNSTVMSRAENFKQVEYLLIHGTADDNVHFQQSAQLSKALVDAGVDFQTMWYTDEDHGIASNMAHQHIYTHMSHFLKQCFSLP

Take EFRHDSGYE-NH2 [Aβ3-11a]: the “turnover of glutamate-containing peptide by QC” value in assay [1] was “serve as QC-substrates”.
Regarding `O=C(O)c1cccc(C(=O)O)n1` [dipicolinic acid], the “inhibition of human QC catalyzed substrate cyclization” value in assay [2] is listed as “abolished”. In addition, the “inactivation of human QC after extensive dialysis” value in assay [2] (dialysis against 5 mM) is on record as “almost completely inactivated”.
Regarding `Oc1cccc2cccnc12` [8-hydroxyquinoline], in assay [2], the “inhibition of human QC catalyzed substrate cyclization” value is given as “abolished”.
On to `COC(=O)CC[C@H](N)C(=O)N[C@@H](Cc1ccccc1)C(=O)N[C@@H](CCCCN)C(=O)N[C@@H](CCCNC(=N)N)C(=O)N[C@@H](CC(C)C)C(=O)N[C@@H](C)C(N)=O` [H-Glu(OMe)-Phe-Lys-Arg-Leu-Ala-NH2] (H-E(OMe)FKRLA-NH2), for which the “inhibition of human QC by the peptide” value in assay [3] is “not inhibited”.
For the compound EFRHDSGYEVHHQKLVFFA-NH2 [Aβ3-21a], in assay [1], the “turnover of glutamate-containing peptide by QC” value is reported as “serve as QC-substrates”.
Consider “H-Gln-cyclo(Nε-Lys-Arg-Pro-Ala-Gly-Phe) (H-QKRPAGF; lactam 2-C; SMILES C[C@@H]1NC(=O)[C@@H]2CCCN2C(=O)[C@H](CCCNC(=N)N)NC(=O)[C@@H](NC(=O)[C@@H](N)CCC(N)=O)CCCCNC(=O)[C@H](Cc2ccccc2)NC(=O)CNC1=O)”, for which, in assay [4] (setting [7]), the “kcat (turnover number)” value worked out at 22.8 ± 10.6 s⁻¹ and the kcat/KM-value came to 95 ± 3 mM⁻¹ s⁻¹.
For the compound `Cc1cc(=O)oc2cc(NC(=O)[C@@H](N)CCC(N)=O)ccc12` [H-Gln-AMC], the kcat/KM in assay [4] (Table 5, n.r. = not reactive) stood at 98 ± 2 mM⁻¹ s⁻¹.
`C[C@H](NC(=O)[C@@H](N)CCC(N)=O)C(N)=O` [H-Gln-Ala-NH2] (H-Gln-Ala-NH2): the Km in assay [4] (setting [8]) was found to be 155 ± 9 µM.
For the compound reduced 6-methylpterin, in assay [5], the “inhibition of a mammalian QC” value is listed as “Inhibition”.
In the case of `NC(=O)CC[C@H](N)C(=O)O` [H-Gln-OH], the kcat/KM entry in assay [4] (Table 5, n.r. = not reactive) is listed as “n.r”.
As to `O=C(O)CN(CCN(CC(=O)O)CC(=O)O)CC(=O)O` [EDTA], the “inhibition of a mammalian QC” value in assay [5] is listed as “did not inhibit”. Also, in assay [2], the “inhibition of human QC catalyzed substrate cyclization” value is on record as “did not show remarkable inhibition”.
`c1ccc2[nH]cnc2c1` [benzimidazole]: the “suppression of [pGlu^3]Aβ3-11a / [pGlu^3]Aβ3-21a formation from Aβ3-11a / Aβ3-21a” value in assay [1] was “suppressed”; in assay [1] (listed as Benzimidazole) it was “suppressing”.
Turning to “[Gln^1]-GnRH: GnRH with N-terminal glutamine: QHWSYGL RP(G) amide”, the kcat/KM in assay [4] (setting [9]) worked out at 1305.7 ± 53.2 mM⁻¹ s⁻¹.
In the case of DAQFRHDSGYE-NH2 [[Gln^3]Aβ1-11a], the “cleavage by DPIV under formation of [Gln^3]Aβ3-11a” value in assay [6] was “cleaving”.
For the compound “H-EFKRLA-NH2 [H-Glu-Phe-Lys-Arg-Leu-Ala-NH2]”, the “inhibition of human QC by the peptide” value in assay [3] is “not inhibited”.
With `NC(=O)CC[C@H](N)C(=O)N[C@@H](Cc1c[nH]cn1)C(=O)N1CCC[C@H]1C(N)=O` [[Gln^1]-TRH] (H-Gln-His-Pro-NH2), the Km in assay [4] (setting [9]) was 90 ± 4 µM.
As for `C[C@H](NC(=O)[C@H](C)NC(=O)[C@@H](N)CCC(N)=O)C(N)=O` [H-Gln-Ala-Ala-NH2] (H-Gln-Ala-Ala-NH2), the Km in assay [4] (setting [8]) was determined as 87 ± 3 µM.
On to `NC(=O)CC[C@H](N)C(=O)N[C@@H](CCC(=O)O)C(=O)N1CCC[C@H]1C(N)=O` [[Gln^1]-FPP] (H-Gln-Glu-Pro-NH2), for which, in assay [4] (setting [9]), the Km worked out at 87 ± 2 µM.

For orientation: kcat/KM means the turnover number divided by the Michaelis constant. In general, Km refers to the substrate concentration at which the rate is half of its maximum.
